Test results reported in patent publication US12624004B2 (Fudan University, priority 2019, dated 2026).
Like-named read-outs stand apart in the source and are kept apart here.

Molecular target: T1, δ opioid receptor (Homo sapiens, UniProt P41143)
T1 construct: expressed in transfected cells; host or cells: CHO cells (membranes)
Assay: Competition binding assay on membranes of CHO cells expressing δ opioid receptor, [3H]-labeled ligand
Summary of the method: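 CHO membranes (20–30 μg protein) incubated with [3H]-labeled ligand at 1–2 nM and test compounds, 30 min at 30° C; nonspecific binding with 1 μM corresponding ligand. Filtered on GF/C, washed with 50 mM Tris-HCl pH 7.4, scintillation-counted. IC50 converted to Ki by Ki=IC50/(1+[L]/Kd).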

T1 sequence (P41143 whole entry): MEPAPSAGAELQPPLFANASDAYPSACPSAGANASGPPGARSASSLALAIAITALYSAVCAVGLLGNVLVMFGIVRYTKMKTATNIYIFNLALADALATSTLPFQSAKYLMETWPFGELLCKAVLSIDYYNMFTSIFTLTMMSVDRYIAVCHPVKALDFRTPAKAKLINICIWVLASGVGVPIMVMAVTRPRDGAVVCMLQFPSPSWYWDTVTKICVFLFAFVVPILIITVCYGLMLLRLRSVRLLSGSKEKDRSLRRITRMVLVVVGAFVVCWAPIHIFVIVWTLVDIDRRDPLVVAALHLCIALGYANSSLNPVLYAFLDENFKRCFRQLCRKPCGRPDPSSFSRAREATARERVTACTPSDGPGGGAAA

COc1cccc(C2(O)CCCCC2CN(C)C)c1 (centres unmarked) [Tramadol, reference compound]
0%: inhibition at 10 µM (0.5 h, Table 1-1, 10 μM concentration of compound, read-out: δOR Binding rate (%)) | inhibition at 1 µM (0.5 h, Table 2-1, 1 μM concentration of compound, read-out: δOR Binding rate (%)) | inhibition at 1 µM (0.5 h, Table 5-1, 1 μM concentration of compound, read-out: δOR Combination rate (%)) | δOR Binding rate (%) (Table 3-1, 1 μM concentration of compounds) | δOR Binding rate (%) (Table 4-1, 1 μM concentration of compound)
